The assay has as its target Src (Homo sapiens, UniProt P12931). Kind of assay: Src kinase inhibition (IC50). In kind it is biochemical. The source says:
Other assays are known from the literature and could readily be performed by the person skilled in the art (see, for example, Dhanabal et al., Cancer Res. 59:189-197; Xin et al., J. Biol. Chem. 274:9116-9121; Sheu et al., Anticancer Res. 18:4435-4441; Ausprunk et al., Dev. Biol. 38:237-248; Gimbrone et al., J. Natl. Cancer Inst. 52:413-427; Nicosia et al., In Vitro 18:538-549).

This passage reports IC50 results from US8853391B2, “Tricyclic azaindoles” (Merck Patent GmbH, priority 2008, dated 2014).

Sequence of Src (P12931 whole entry, species assumed): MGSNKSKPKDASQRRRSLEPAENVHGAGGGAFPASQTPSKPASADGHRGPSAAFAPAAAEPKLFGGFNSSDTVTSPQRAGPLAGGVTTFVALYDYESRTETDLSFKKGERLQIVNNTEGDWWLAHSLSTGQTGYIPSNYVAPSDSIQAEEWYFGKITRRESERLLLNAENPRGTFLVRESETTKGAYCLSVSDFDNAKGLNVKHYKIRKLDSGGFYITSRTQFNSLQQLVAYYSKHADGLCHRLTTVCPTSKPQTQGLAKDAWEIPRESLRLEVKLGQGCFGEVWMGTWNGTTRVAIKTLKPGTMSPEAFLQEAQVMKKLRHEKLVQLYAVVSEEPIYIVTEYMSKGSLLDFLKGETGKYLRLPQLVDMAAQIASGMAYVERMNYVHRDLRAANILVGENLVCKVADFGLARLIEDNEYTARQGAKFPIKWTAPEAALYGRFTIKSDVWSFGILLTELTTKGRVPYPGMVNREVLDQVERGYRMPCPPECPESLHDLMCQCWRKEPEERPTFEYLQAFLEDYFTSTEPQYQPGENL

What is called IC50 is the point on the concentration scale where inhibition reaches its midpoint. Low values mean higher potency, high ones lower potency. Regarding `CC(=O)N1CCc2[nH]c3nccc(Nc4c(Cl)ccc5c4OCO5)c3c2C1` [Example 15, 1-[4-(5-Chloro-benzo[1,3]dioxol-4-ylamino)-5,7,8,9-tetrahydro-dipyrido[2,3-b;3′,4′-d]pyrrol-6-yl]-ethanone], the IC50 was in the range of 11 to 100 nM. The result for `O=C(c1ccccc1)N1CCc2[nH]c3nccc(Nc4c(Cl)ccc5c4OCO5)c3c2C1` [Example 67, [4-(5-Chloro-benzo[1,3]-dioxol-4-ylamino)-5,7,8,9-tetrahydro-dipyrido[2,3-b;3′,4′-d]pyrrol-6-yl]-phenyl-methanone] reads 101 to 1000 nM; that for `O=C(C1CC1)N1CCc2[nH]c3nccc(Nc4c(Cl)ccc5c4OCO5)c3c2C1` [Example 68, [4-(5-Chloro-benzo[1,3]-dioxol-4-ylamino)-5,7,8,9-tetrahydro-dipyrido[2,3-b;3′,4′-d]pyrrol-6-yl]-cyclopropyl-methanone], 101 to 1000 nM; that for `O=C(C1CCC1)N1CCc2[nH]c3nccc(Nc4c(Cl)ccc5c4OCO5)c3c2C1` [Example 69, [4-(5-Chloro-benzo[1,3]-dioxol-4-ylamino)-5,7,8,9-tetrahydro-dipyrido[2,3-b;3′,4′-d]pyrrol-6-yl]-cyclobutyl-methanone], 101 to 1000 nM.

With `O=C(C1CCCC1)N1CCc2[nH]c3nccc(Nc4c(Cl)ccc5c4OCO5)c3c2C1` [Example 70, [4-(5-Chloro-benzo[1,3]-dioxol-4-ylamino)-5,7,8,9-tetrahydro-dipyrido[2,3-b;3′,4′-d]pyrrol-6-yl]-cyclopentyl-methanone], the IC50 was in the range of 101 to 1000 nM. Under `O=C(C1CCCCC1)N1CCc2[nH]c3nccc(Nc4c(Cl)ccc5c4OCO5)c3c2C1` [Example 71, [4-(5-Chloro-benzo[1,3]-dioxol-4-ylamino)-5,7,8,9-tetrahydro-dipyrido[2,3-b;3′,4′-d]pyrrol-6-yl]-cyclohexyl-methanone] stands 101 to 1000 nM.
